Experiment: xn = mol fraction of the nth substance listed
Settings: Liquid

COC(=O)OC [dimethyl carbonate] + C1CCCCC1
mass density [kg/m3]
Settings | x1 = 0.1 | x1 = 0.2 | x1 = 0.3 | x1 = 0.4 | x1 = 0.5 | x1 = 0.6 | x1 = 0.7 | x1 = 0.8 | x1 = 0.9 | x1 = 1
293.15 K, 100 kPa | 797.9 | 818.3 | 842.3 | 866 | 893.7 | 923.6 | 957.5 | 991 | 1030.4 | 1069.8
293.15 K, 5000 kPa | 802.2 | 822.7 | 846.9 | 870.7 | 898.5 | 928.4 | 962.3 | 995.8 | 1035.1 | 1074.4
293.15 K, 10000 kPa | 806.2 | 827 | 851.2 | 875.3 | 903.1 | 933 | 966.9 | 1000.3 | 1039.5 | 1078.6
293.15 K, 20000 kPa | 813.9 | 835 | 859.6 | 883.9 | 911.8 | 941.8 | 975.7 | 1009 | 1048 | 1086.9
293.15 K, 30000 kPa | 821.3 | 842.7 | 867.5 | 892 | 920 | 950 | 983.8 | 1017.1 | 1055.8 | 1094.5
293.15 K, 40000 kPa | 828.5 | 850.2 | 875.2 | 899.8 | 928 | 958 | 991.8 | 1025 | 1063.5 | 1101.9
298.15 K, 100 kPa | 792.3 | 812.5 | 836.3 | 860 | 887.4 | 917 | 950.8 | 984.2 | 1023.2 | 1063.2
298.15 K, 5000 kPa | 796.9 | 817.3 | 841.3 | 865.1 | 892.6 | 922.2 | 956 | 989.4 | 1028.2 | 1068
298.15 K, 10000 kPa | 801.2 | 821.8 | 846 | 870 | 897.5 | 927.1 | 960.8 | 994.2 | 1032.8 | 1072.4
298.15 K, 20000 kPa | 809.2 | 830.2 | 854.6 | 878.8 | 906.5 | 936.1 | 969.8 | 1003.1 | 1041.5 | 1080.8
298.15 K, 30000 kPa | 816.5 | 837.8 | 862.5 | 887 | 914.8 | 944.5 | 978.2 | 1011.4 | 1049.7 | 1088.7
298.15 K, 40000 kPa | 823.2 | 844.8 | 869.8 | 894.5 | 922.5 | 952.3 | 986.1 | 1019.3 | 1057.4 | 1096.2
303.15 K, 100 kPa | 786.9 | 806.9 | 830.4 | 854.1 | 881.2 | 910.1 | 944.1 | 977.4 | 1015.8 | 1056.5
303.15 K, 5000 kPa | 791.4 | 811.7 | 835.4 | 859.2 | 886.4 | 915.4 | 949.3 | 982.6 | 1020.9 | 1061.3
303.15 K, 10000 kPa | 796 | 816.5 | 840.4 | 864.4 | 891.6 | 920.6 | 954.5 | 987.7 | 1025.8 | 1065
303.15 K, 20000 kPa | 804.5 | 825.3 | 849.5 | 873.8 | 901.2 | 930.3 | 964.1 | 997.1 | 1035 | 1074.7
303.15 K, 30000 kPa | 812.1 | 833.4 | 857.9 | 882.3 | 909.9 | 939.1 | 972.8 | 1005.8 | 1043.6 | 1082.9
303.15 K, 40000 kPa | 819 | 840.7 | 865.4 | 890.1 | 917.8 | 947.2 | 980.9 | 1013.8 | 1051.4 | 1090.4
308.15 K, 100 kPa | 781.2 | 801.4 | 824.4 | 847.9 | 874.8 | 903.4 | 936.9 | 969.7 | 1008.6 | 1049.8
308.15 K, 5000 kPa | 786.1 | 806.5 | 829.7 | 853.4 | 880.3 | 908.9 | 942.3 | 975.1 | 1013.7 | 1054.6
308.15 K, 10000 kPa | 790.8 | 811.4 | 834.8 | 858.6 | 885.6 | 914.2 | 947.7 | 980.4 | 1018.8 | 1059.4
308.15 K, 20000 kPa | 799.5 | 820.5 | 844.2 | 868.3 | 895.5 | 924.2 | 957.6 | 990.2 | 1028.4 | 1068.5
308.15 K, 30000 kPa | 807.4 | 828.7 | 852.8 | 877.1 | 904.4 | 933.3 | 966.7 | 999.3 | 1037.3 | 1077
308.15 K, 40000 kPa | 814.6 | 836.3 | 860.6 | 885.2 | 912.7 | 941.7 | 975 | 1007.6 | 1045.4 | 1084.8
313.15 K, 100 kPa | 775.6 | 795.8 | 818.5 | 841.9 | 868.6 | 896.7 | 929.7 | 962.3 | 1001.1 | 1043
313.15 K, 5000 kPa | 780.8 | 801.3 | 824.1 | 847.7 | 874.4 | 902.6 | 935.5 | 968 | 1006.6 | 1048.1
313.15 K, 10000 kPa | 785.6 | 806.2 | 829.3 | 853 | 879.8 | 908.1 | 941 | 973.5 | 1011.9 | 1053
313.15 K, 20000 kPa | 794.8 | 815.8 | 839.2 | 863.2 | 890.2 | 918.5 | 951.4 | 983.8 | 1021.8 | 1062.3
313.15 K, 30000 kPa | 802.9 | 824.2 | 848 | 872.2 | 899.4 | 927.9 | 960.8 | 993.1 | 1030.9 | 1071
313.15 K, 40000 kPa | 810.5 | 832.1 | 856.2 | 880.7 | 908 | 936.7 | 969.5 | 1001.9 | 1039.4 | 1079
